Experimental findings from PubChem BioAssay (NCI) are described below.

Structures are written as SMILES. Several values for one entry are separate records, joined by “and”; a condition that tells them apart may be missing. Identical values can stand only once.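 Five compound concentrations were applied to cells in 96-well plates for 48 hours; endpoints were derived by simple linear interpolation of the resulting dose-response curve. GI50 = concentration required for 50% inhibition of growth. The concentration for full growth arrest is given as TGI.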 Bounds are passed on as bounds.

Test systems include BT-549 breast; CCRF-CEM leukemia; COLO 205 colon; IGROV1 ovarian; LOX IMVI melanoma; NCI-H226 lung; NCI-H460 lung; NCI-H522 lung; OVCAR-4 ovarian; U251 CNS.
What all share (experiment): growth of human tumour cells (NCI), 48 h

With `CN(Cc1cnc2nc(N)nc(N)c2n1)c1ccc(C(=O)NC(CCC(=O)O)C(=O)O)cc1` (configuration not stated), the GI50 in the test on BT-549 breast was 6.51 µM; in the test with CCRF-CEM leukemia, 0.056 µM; in the test with IGROV1 ovarian, 0.809 µM; in the test on LOX IMVI melanoma, 0.0372 µM; with NCI-H226 lung it was 0.505 µM; with NCI-H460 lung, 0.05 µM. Moreover, the GI50 with NCI-H522 lung is 0.721 µM; in the test with OVCAR-4 ovarian, above 100 µM; in the test on U251 CNS it was 0.435 µM. In addition, the TGI with BT-549 breast, with CCRF-CEM leukemia, in the test with COLO 205 colon, in the test with IGROV1 ovarian, with LOX IMVI melanoma and with NCI-H226 lung was above 100 µM in each case. The TGI in the test on NCI-H460 lung, in the test with NCI-H522 lung, with OVCAR-4 ovarian and with U251 CNS was above 100 µM throughout.
With `COc1ccc2c3c(c(OCCCN(C)C)nc2c1)-c1ccc(Cl)cc1C3=O`, the GI50 in the test with BT-549 breast is 14.2 µM; in the test on CCRF-CEM leukemia it was 7.89 µM; in the test on COLO 205 colon, 5.57 µM; in the test with IGROV1 ovarian, 1.73 µM; in the test on LOX IMVI melanoma, 4.58 µM; in the test on NCI-H226 lung, 3.52 µM. Moreover, the GI50 in the test on NCI-H460 lung was 2.26 µM; in the test with NCI-H522 lung, 7.1 µM; in the test on OVCAR-4 ovarian it was 2.83 µM; with U251 CNS, 4.74 µM. Further, the TGI is 28.3 µM in the test on BT-549 breast; 66 µM in the test on CCRF-CEM leukemia; 26.6 µM in the test with COLO 205 colon; 25.9 µM with IGROV1 ovarian; 19.4 µM in the test on LOX IMVI melanoma; 21.7 µM in the test with NCI-H226 lung. The TGI was determined as 10.2 µM with NCI-H460 lung, 24.1 µM with NCI-H522 lung, 17.2 µM with OVCAR-4 ovarian and 16.6 µM in the test with U251 CNS.
Take `Cn1cnc([N+](=O)[O-])c1Sc1ncnc2c1ncn2C1OC(CO)C(O)C1O` (configuration not stated): the GI50 in the test on BT-549 breast was above 100 µM; with CCRF-CEM leukemia, 21.7 µM; with COLO 205 colon, 15 µM; with IGROV1 ovarian it was 11.4 µM; in the test on LOX IMVI melanoma, 1.71 µM; in the test on NCI-H226 lung it was 8.04 µM. The GI50 was 5.72 µM in the test with NCI-H460 lung, 9.62 µM with NCI-H522 lung, 45.3 µM in the test on OVCAR-4 ovarian and 8.79 µM in the test with U251 CNS. Also, the TGI in the test with BT-549 breast is above 100 µM; in the test with CCRF-CEM leukemia, above 100 µM; in the test with COLO 205 colon, 61 µM; in the test on IGROV1 ovarian it was above 100 µM; with LOX IMVI melanoma, above 100 µM; with NCI-H226 lung, above 100 µM. The TGI in the test with NCI-H460 lung, with NCI-H522 lung, with OVCAR-4 ovarian and with U251 CNS was above 100 µM each time.
As to `CN(C)c1ccc(/C=C/c2ccnc3ccccc23)cc1`, the GI50 in the test on BT-549 breast was 1.88 µM; in the test with CCRF-CEM leukemia it was 4.52 µM; with COLO 205 colon, 3.37 µM; with IGROV1 ovarian, 5.61 µM; with LOX IMVI melanoma it was 4.7 µM; with NCI-H226 lung it was 3 µM. The GI50 in the test on NCI-H460 lung was 3.07 µM; in the test with NCI-H522 lung it was 10.5 µM; in the test with OVCAR-4 ovarian it was 16.8 µM; in the test on U251 CNS, 4.04 µM. The TGI in the test on BT-549 breast was > 100 µM and 14.6 µM; in the test on CCRF-CEM leukemia, above 100 µM; in the test with COLO 205 colon, > 100 µM and 16 µM; in the test with IGROV1 ovarian it was above 100 µM; in the test with LOX IMVI melanoma it was > 100 µM and 19.7 µM; in the test on NCI-H226 lung, 48 µM. Further, the TGI is > 100 µM and 16.8 µM in the test with NCI-H460 lung; above 100 µM in the test on NCI-H522 lung; above 100 µM in the test on OVCAR-4 ovarian; > 100 µM and 63.4 µM in the test on U251 CNS.
Turning to `FC(F)(F)c1ccc(-c2cnc(Br)nc2NC2CCCCCC2)cc1`, the GI50 was 72.9 µM in the test on BT-549 breast; 84.7 µM with CCRF-CEM leukemia; 83.3 µM with COLO 205 colon; above 100 µM in the test with IGROV1 ovarian; 24.6 µM in the test with NCI-H226 lung; 82.2 µM with NCI-H460 lung. Further, the values for the GI50 in the test with NCI-H522 lung, with OVCAR-4 ovarian and in the test on U251 CNS were 28.3 µM, 26 µM and 75 µM, respectively. For the same molecule, the TGI in the test on BT-549 breast, in the test with CCRF-CEM leukemia, in the test on COLO 205 colon, with IGROV1 ovarian, with NCI-H226 lung and in the test on NCI-H460 lung was above 100 µM throughout. Moreover, the TGI in the test with NCI-H522 lung, in the test on OVCAR-4 ovarian and with U251 CNS was above 100 µM each time.
Consider `CC(=O)/C(C)=N/N/C(N)=N\S(=O)(=O)c1cc(C(=O)Nc2ccccc2)c(Cl)cc1SCc1ccccc1`, for which the GI50 with BT-549 breast is 23.8 µM; with CCRF-CEM leukemia it was 98.5 µM; with COLO 205 colon, above 100 µM; in the test with IGROV1 ovarian, 29.9 µM; in the test with LOX IMVI melanoma, 4.83 µM; in the test with NCI-H226 lung, 66.7 µM. In addition, the GI50 in the test on NCI-H460 lung was 18 µM; in the test with NCI-H522 lung, 64.7 µM; with OVCAR-4 ovarian it was 12.3 µM; in the test on U251 CNS it was 27.7 µM. Moreover, the TGI with BT-549 breast, in the test with CCRF-CEM leukemia, with COLO 205 colon, in the test with IGROV1 ovarian, with LOX IMVI melanoma and in the test on NCI-H226 lung was above 100 µM throughout. In addition, the TGI is 79.3 µM with NCI-H460 lung, above 100 µM with NCI-H522 lung, above 100 µM in the test with OVCAR-4 ovarian and above 100 µM in the test with U251 CNS.
Regarding `C[C@H]1[C@@H](OCC(CO[C@H]2O[C@@H]3O[C@@]4(C)CC[C@H]5[C@H](C)CC[C@@H]([C@H]2C)[C@@]35OO4)=NOCC(=O)O)OC2O[C@@]3(C)CC[C@H]4[C@H](C)CC[C@@H]1[C@@]24OO3` (some centres not stated), the GI50 in the test on BT-549 breast was 0.473 µM; with CCRF-CEM leukemia it was below 0.01 µM; with COLO 205 colon, below 0.0195 µM; in the test on IGROV1 ovarian it was 0.0673 µM; in the test on LOX IMVI melanoma, below 0.01 µM; with NCI-H226 lung, 0.0375 µM. Further, the GI50 was 0.0537 µM with NCI-H460 lung, below 0.0151 µM in the test with NCI-H522 lung, 0.0565 µM with OVCAR-4 ovarian and below 0.0114 µM in the test on U251 CNS. The TGI stood at 20.7 µM in the test on BT-549 breast; 12.5 µM in the test with CCRF-CEM leukemia; 0.422 µM in the test on COLO 205 colon; 21.3 µM with IGROV1 ovarian; 13.3 µM with LOX IMVI melanoma; 20.1 µM with NCI-H226 lung. The TGI is 19.5 µM with NCI-H460 lung, 11.4 µM with NCI-H522 lung, 18.2 µM in the test with OVCAR-4 ovarian and 14 µM in the test with U251 CNS.
